Series [1] can be described thus: Cytotoxicity against mouse BV-2 cells assessed as survival rate at 2.5 ug/ml incubated for 24 hrs by MTT assay. It is filed as toxicity, cell-based. The note with it: at 2.5 µg/mL, read-out: Activity.
Series [2] relates to BV-2. In words: Anti-neuroinflammatory activity in mouse BV-2 cells assessed as inhibition of LPS-stimulated IL-6 production at 2.5 ug/ml measured after 24 hrs by ELISA. Format: functional. Details: scale not given: the % may be the effect or the level left. The note with it: dose 2.5 µg/ml.
The test system of series [3] is BV-2. Put plainly: Anti-neuroinflammatory activity in mouse BV-2 cells assessed as inhibition of LPS-stimulated TNF-alpha production at 2.5 ug/ml measured after 24 hrs by ELISA. Format: functional. The arrangement: scale not given: the % may be the effect or the level left. As to conditions: dose 2.5 µg/ml. (An ELISA detects its analyte on a solid surface through an enzyme-linked reagent.)

Series [4] deals with BV-2. In words: Neuroprotective activity against LPS-induced mouse BV-2 cell death assessed as reversal of apoptosis at 2.5 uM and measured after 24 hrs by Annexin V-FITC/PI staining based flow cytometry method (reference value: 91.6%). It is filed as functional. On the technique in general: In flow cytometry, cells or beads pass a laser one at a time.
The test system of series [5] is BV-2. Put plainly: Neuroprotective activity against LPS-induced mouse BV-2 cell death assessed as reversal of apoptosis at 5 uM and measured after 24 hrs by Annexin V-FITC/PI staining based flow cytometry method (reference value: 91.6%). It is filed as functional.
Series [6] relates to BV-2. Put plainly: Neuroprotective activity against LPS-induced mouse BV-2 cell death assessed as late apoptotic cells at 5 uM and measured after 24 hrs by Annexin V-FITC/PI staining based flow cytometry method (reference value: 0%). Format: functional.
For series [7], the system named is BV-2. In words: Anti-neuroinflammatory activity in mouse BV-2 cells assessed as inhibition of LPS-induced NLRP3 expression level at 1.25 to 5 ug/ml and measured after 24 hrs by western blot analysis. Format: functional, cell-based. As to conditions: dose 1.25-5 µg/ml, DDE = dose-dependent effect. Background: A western blot detects proteins with antibodies after separation by electrophoresis.

The test system of series [8] is BV-2. Put plainly: Anti-neuroinflammatory activity in mouse BV-2 cells assessed as inhibition of LPS-induced caspase-1 expression level at 1.25 to 5 ug/ml and measured after 24 hrs by western blot analysis. It is filed as functional, cell-based. The note with it: dose 1.25-5 µg/ml, DDE = dose-dependent effect.
The subject of series [9] is BV-2. In words: Anti-neuroinflammatory activity in mouse BV-2 cells assessed as inhibition of LPS-induced ASC expression level at 1.25 to 5 ug/ml and measured after 24 hrs by western blot analysis. It is filed as functional, cell-based. The note with it: dose 1.25-5 µg/ml, DDE = dose-dependent effect.
Series [10] concerns BV-2. In words: Neuroprotective activity against LPS-induced mouse BV-2 cell death assessed as late apoptotic cells at 2.5 uM and measured after 24 hrs by Annexin V-FITC/PI staining based flow cytometry method (reference value: 0%). It is filed as functional.
Series [11] deals with BV-2. Put plainly: Anti-neuroinflammatory activity in mouse BV-2 cells assessed as reduction of LPS-stimulated IkappaBalpha phosphorylation level at 1.25 to 5 ug/ml and measured after 24 hrs by westernblot analysis. As to conditions: dose 1.25-5 µg/ml, DDE = dose-dependent effect. Format: functional, cell-based.

In the case of `COc1ccc(-c2nc(N)nc3c2CCc2ccc(F)cc2-3)cc1C(F)(F)F`, the viability at 24 h, 2.5 ug/ml in series [1] was 91%. Further, the Activity in series [2] stood at 43%; in series [3] it was 42.4%.
In the same order, the values of `COc1cncc(-c2nc(N)nc3c2CCc2ccc(OC)cc2-3)c1` are 94.7%, 53.8% and 47.3%.
As for `COc1ccc2c(c1)-c1nc(N)nc(-c3ccc(OC)nc3)c1CC2`, in [1], the viability at 24 h, 2.5 ug/ml turned out to be 87.5%. In addition, the Activity was determined as 43.7% in series [2] and 42.7% in series [3].
In the same order, the values of `COc1cccc(-c2nc(N)nc3c2CCc2ccc(F)cc2-3)c1` are 95%, 66.6% and 53.8%.
With `COc1ccc(/C=C2\CCc3ccc(F)cc3C2=O)cc1C(F)(F)F`, the viability at 24 h, 2.5 ug/ml in series [1] worked out at 94.7%. Moreover, the results for the Activity in [2] and in [3] were 42.3% and 38.6%, respectively.
In the same order, the values of `COc1cccc(/C=C2\CCc3ccc(F)cc3C2=O)n1` are 85.8%, 61.1% and 41.7%.
As to `COc1ccc(/C=C2\CCc3ccc(Br)cc3C2=O)cn1`, the viability at 24 h, 2.5 ug/ml in series [1] worked out at 89.5%. The Activity is listed as 45.5% in series [2] and 32.5% in series [3].
For the compound `COc1ccc(-c2nc(N)nc3c2CCc2ccc(F)cc2-3)cn1`, in series [1], the viability at 24 h, 2.5 ug/ml is 89.6%. The Activity was determined as 43.9% in series [2] and 43.3% in series [3].
On to `COc1cc(-c2nc(N)nc3c2CCc2ccc(Br)cc2-3)cc(OC)c1OC`, for which, in series [1], the viability at 24 h, 2.5 ug/ml is 93.1%. The values for the Activity in series [2] and in [3] were 43.7% and 39.9%, respectively.
`COc1ccc(-c2nc(N)nc3c2CCc2ccc(Br)cc2-3)cn1`: in series [1], the viability at 24 h, 2.5 ug/ml is 95.4%. For the same compound, the Activity is reported as 40.6% in series [2] and 43.8% in series [3].
As for `S=C(S)N1CCCC1` [PYRROLIDINE DITHIOCARBAMATE], the Activity came out at 64% in series [2] and 55.9% in series [3].
As to `COc1cncc(-c2nc(N)nc3c2CCc2ccc(F)cc2-3)c1`, the Activity was 54.8% in [4]; 70.7% in [5]; 13% in series [6]; 80.2% in [2]; 60.8% in series [3]; “Dde” in [7]. Moreover, the Activity entry in series [8] was “Dde”; in [9], “Dde”; in [10], 30.7%; in series [11] it was “Dde”. In addition, the viability at 24 h, 2.5 ug/ml in [1] worked out at 97.4%.
In the case of `COc1ccc2c(c1)C(=O)/C(=C/c1ccc(OC)cc1C(F)(F)F)CC2`, the viability at 24 h, 2.5 ug/ml in series [1] was determined as 88.3%. The Activity is listed as 44.9% in series [2] and 40% in [3].
In the same order, the values of `COc1cc(OC)cc(-c2nc(N)nc3c2CCc2ccc(F)cc2-3)c1` are 95.4%, 51.7% and 45.3%.
With `COc1ccc2c(c1)-c1nc(N)nc(-c3cccc(OC)n3)c1CC2`, the viability at 24 h, 2.5 ug/ml in series [1] was 94.8%. The Activity in series [2] is recorded as 44.1%; in series [3] it was 44.9%.
In the same order, the values of `COc1ccc2c(c1)C(=O)/C(=C/c1ccc(OC)nc1)CC2` are 93.1%, 45% and 23.8%.
Take `COc1ccc2c(c1)-c1nc(N)nc(-c3ccc(OC)c(C(F)(F)F)c3)c1CC2`: in series [1], the viability at 24 h, 2.5 ug/ml worked out at 90.3%. The Activity in series [2] was 44.2%; in [3] it was 46.7%.
In the same order, the values of `COc1cncc(/C=C2\CCc3ccc(F)cc3C2=O)c1` are 94.4%, 46.4% and 33.3%.
For `COc1ccc2c(c1)C(=O)/C(=C/c1ccc(OC)c(C(F)(F)F)c1)CC2`, in series [1], the viability at 24 h, 2.5 ug/ml came out at 94.4%. For the same compound, the Activity is on record as 44.4% in series [2] and 32.8% in series [3].
Consider `COc1cccc(/C=C2\CCc3ccc(Br)cc3C2=O)n1`, for which the viability at 24 h, 2.5 ug/ml in [1] amounted to 94.7%. For the same compound, the Activity in [2] was found to be 44.9%; in [3], 31.9%.
In the same order, the values of `COc1cccc(-c2nc(N)nc3c2CCc2ccc(Br)cc2-3)n1` are 88.9%, 55.8% and 44.8%.
As for `COc1ccc(/C=C2\CCc3ccc(F)cc3C2=O)cn1`, in series [1], the viability at 24 h, 2.5 ug/ml is 92.7%. In addition, the Activity is reported as 47% in [2] and 34.3% in [3].
`COc1cc(/C=C2\CCc3ccc(F)cc3C2=O)cc(OC)c1`: the viability at 24 h, 2.5 ug/ml in series [1] was determined as 87.8%. The Activity in series [2] is on record as 46.1%; in series [3], 40.8%.
In the same order, the values of `COc1cc(/C=C2\CCc3ccc(Br)cc3C2=O)cc(OC)c1OC` are 93.5%, 35.9% and 33.1%.
Consider `COc1cccc(/C=C2\CCc3ccc(F)cc3C2=O)c1`, for which the viability at 24 h, 2.5 ug/ml in series [1] amounted to 90.3%. Further, the Activity was determined as 35.2% in [2] and 34% in [3].
In the same order, the values of `COc1ccc2c(c1)C(=O)/C(=C/c1cccc(OC)n1)CC2` are 90.4%, 54% and 40.6%.
In the same order, the values of `COc1ccc2c(c1)-c1nc(N)nc(-c3ccc(OC)cc3C(F)(F)F)c1CC2` are 89.9%, 54.3% and 38.2%.
In the same order, the values of `COc1cncc(/C=C2\CCc3ccc(OC)cc3C2=O)c1` are 92.3%, 43.7% and 29.7%.
Regarding `COc1cncc(-c2nc(N)nc3c2CCc2ccc(Br)cc2-3)c1`, in [1], the viability at 24 h, 2.5 ug/ml worked out at 93.2%. For the same compound, the Activity is recorded as 43.3% in series [2] and 49.4% in series [3].
Turning to `COc1cccc(-c2nc(N)nc3c2CCc2ccc(F)cc2-3)n1`, the viability at 24 h, 2.5 ug/ml in series [1] came to 95.4%. In addition, the figures for the Activity in series [2] and in [3] were 66.9% and 50.3%, respectively.
In the same order, the values of `COc1cncc(/C=C2\CCc3ccc(Br)cc3C2=O)c1` are 94.9%, 47% and 35.9%.
